{"source": "patent US20250130239A1", "about": "“PROTEIN DEGRADER” (University of Dundee, priority 2021, published 2025)", "key": {"wild-type Brd4^BD2": {"molecular_target": "wild-type Brd4^BD2 (Homo sapiens, UniProt O60885)", "conditions": "cited from earlier work"}, "MV-4-11 cells": {"test_system": "MV-4-11 cells", "test": "CellTiter-Glo cell viability assay, MV-4-11", "assay_type": "cell-based, human", "conditions": "24 h", "experimental": "Cell Viability Assay. MV-4-11 cells were plated at a density of 2×10^4 cell per well of a 96 well white-bottom plate, and left to grow overnight in 50 μl of IMDM (Invitrogen, arlsebad, CA, USA) supplemented with 10% (v/v) Fetal bovine serum (FBS) (Thermo Fisher, Waltham, MA, USA) and 1% (v/v) penicillin/streptomycin (pen/strep) (#15140122, Thermo Fisher, Waltham, MA, USA) at 37° C., 5% CO2, and 95% humidity. […] These cells were then left to incubate at 37° C., 5% CO2, and 95% humidity for one day prior to undergoing spectrophotometric analysis. 22RV1 cells were plated at a density of 2×10^4 cell per well of a 96 well white-bottom plate, and left to grow overnight in 100 μL of RPMI-1640 (Invitrogen, Carlsebad, CA, USA) supplemented with 10% (v/v) fetal bovine serum (FBS) (Thermo Fisher, Waltham, MA, USA) and 1% (v/v) penicillin/streptomycin (pen/strep) (#15140122, Thermo Fisher, Waltham, MA, USA) at 37° C., 5% CO2, and 95% humidity. […] Plates were subjected to 2 mins on an orbital shaker to encourage lysis and left for a further 5 mins to reach peak luminescence. Luminescence was then recorded on a BMG Labtech PHERAstar luminescence plate reader with recommended settings. Data extracted from this analysis was analysed with Graphpad Prism (v. 8.2.0, GraphPad) and normalized to the DMSO vehicle control. […]"}, "[1]": {"conditions": "mice, values obtained from ref., cited from earlier work"}, "Brd2, Brd3 and Brd4": {"test_system": "Brd2, Brd3 and Brd4", "test": "First generation screen at 1 μM, 6 h: BET protein levels (western blot)", "assay_type": "cell-based, human", "experimental": "Western Blotting. All cells were harvested on ice with RIPA lysis, and extraction buffer (ThermoFisher Scientific, 89901) supplemented with protease inhibitor cocktail (Merck, 11697498001) and Benzonase® Nuclease (Sigma, E1014) before being store at −20° C. prior to use. Total protein quantity was determined using the BCA protein assay (#23225, Pierce, Rockford, Illinois). Protein concentration was determined using the BCA assay (ThermoFisher Scientific, 23225). Samples were then prepared and loaded onto NuPAGE™ 4-12% Bis-Tris Midi gels (ThermoFisher Scientific, WG1403A), followed by the transfer of the proteins onto nitrocellulose membranes (EMD Millipore). […] All western blots were analysed for band intensities using Image Lab from Bio-Rad (LI-COR, Biosciences). The data extracted from these blots were then plotted and analysed using Prism (v. 8.2.0, GraphPad).\nWith this initial library in hand, we set out to evaluate the activity and selectivity of our I-BET-based B&H-PROTACs by treating our heterozygous BromoTag-Brd2 HEK293 cells with 1 μM of compounds 15-17 or 1 μM of control compounds MZP-15 (14), MZ1 (1) and cis-MZ1 for 6 h, which is sufficient time to achieve effective MZ1-induced BET protein degradation (FIG. 4A). Cells were harvested, and the subsequent lysate was analysed via western blot using antibodies against BET proteins; Brd2, Brd3 and Brd4 (FIG. 4A)."}, "[2]": {"test_system": "BRD2 in Bromotag-BRD2 CRISPR knock-in HEK293 cells", "test": "TMT labeling mass spectrometry proteomics, tagged target", "assay_type": "cell-based, human", "conditions": "1 μM, 2 h; >6,621 proteins quantified", "experimental": "(§1) Sample processing, TMT labelling and fractionation. CRISPR modified BromoTag-Brd2 HEK293 cells were seeded 5×10^6 cells on a […] 24 h before treatment. Cells were treated with either DMSO, 1 μM AGB1 or 1 μM cis-AGB1. 2 h post-treatment, the cells were washed twice with PBS. Cells were lysed in 150 μL of 100 mM TEAB, 5% (w/v) SDS. The lysate was sonicated for 10 s and then centrifuged at 15,000 g for 5 min with the supernatant collected post-centrifugation. Samples were then quantified using a micro-BCA protein assay kit (Thermo Fisher Scientific); 300 μg of each sample were then reduced, alkylated and then digested using Strap mini protocol (Protifi) protocol as described by the manufacturer (protifi) with some modification. Samples were double digested with trypsin (1:40) first overnight then for another 6 hrs with the same ratio (1:40) in 50 mM TEAB buffer. Peptides were quantified using a quantitative fluorometric peptide assay (Thermo Fisher Scientific). The samples (90 μg each) were labelled with a TMT 10-plex Isobaric Label Reagent set (Thermo Fisher Scientific) as per the manufacturer's instructions. After labelling, samples were checked for labelling efficiency, then mixed, desalted, and dried in a speed-vac at 30° C. Samples were re-dissolved in 200 μl ammonium formate (10 mM, pH 9.5) and peptides were fractionated using High pH RP Chromatography. […]"}, "[3]": {"test_system": "BRD3, BRD4 or any other endogenous protein", "test": "TMT labeling mass spectrometry proteomics, off-targets", "assay_type": "cell-based, human", "conditions": "1 μM, 2 h; >6,621 proteins quantified", "experimental": "as §1"}}, "note": "Like-named read-outs stand apart in the source and are kept apart here.", "data": [{"compound": "CC[C@@H](C(=O)OC)[C@@H]1N=C(c2ccc(Cl)cc2)c2c(sc(C)c2C)-n2c(C)nnc21", "note": "[ET-JQ1-OMe]", "values": [{"measurement": "binding to the wild-type domain", "setting": "wild-type Brd4^BD2", "result": "undetectable binding"}]}, {"compound": "Cc1ncsc1-c1ccc(CNC(=O)[C@@H]2C[C@@H](O)CN2C(=O)[C@@H](NC(=O)COCCOCCOCCNC(=O)C[C@@H]2N=C(c3ccc(Cl)cc3)c3c(sc(C)c3C)-n3c(C)nnc32)C(C)(C)C)cc1", "note": "[MZ1 (1)]", "values": [{"measurement": "EC50", "setting": "MV-4-11 cells", "result": "~20", "unit": "nM"}, {"measurement": "T1/2", "setting": "[1]; IV (5 mg/kg), 5 mg/kg", "result": 1.04, "unit": "h"}, {"measurement": "AUCinf", "setting": "[1]; IV (5 mg/kg)", "result": 4.51, "unit": "µM·h"}, {"measurement": "CL", "setting": "[1]; IV (5 mg/kg)", "result": 19.7, "unit": "mL/min/kg"}, {"measurement": "MRTinf", "setting": "[1]; IV (5 mg/kg)", "result": 0.340, "unit": "h"}, {"measurement": "Vss", "setting": "[1]; IV (5 mg/kg)", "result": 0.38, "unit": "L/kg"}, {"measurement": "T1/2", "setting": "[1]; IV (5 mg/kg), listed as 1, 5 mg/kg", "result": 1.05, "unit": "h"}, {"measurement": "AUCinf", "setting": "[1]; SC (5 mg/kg)", "result": 3.76, "unit": "µM·h"}, {"measurement": "F (%)", "setting": "[1]; SC (5 mg/kg)", "result": 83, "unit": "%"}, {"measurement": "T1/2", "setting": "[1]; SC (5 mg/kg)", "result": 2.95, "unit": "h"}]}, {"compound": "COc1ccc2c(c1)C(c1ccc(Cl)cc1)=NC(CC(=O)NCCOCCOCCOCC(=O)N[C@H](C(=O)N1C[C@H](O)C[C@H]1C(=O)NCc1ccc(-c3scnc3C)cc1)C(C)(C)C)c1nnc(C)n1-2", "note": "(stereo partly drawn) [MZP-15 (14), (2S,4R)-1-((2S)-2-(tert-butyl)-17-(6-(4-chlorophenyl)-8-methoxy-1-methyl-4H-benzo[fj][1,2,4]triazolo[4,3-a][1,4]diazepin-4-yl)-4,16-dioxo-6,9,12-trioxa-3,15-diazaheptadecanoyl)-4-hydroxy-N-(4-(4-methylthiazol-5-yl)benzyl)pyrrolidine-2-carboxamide]", "values": [{"measurement": "activity across all three BET family members relative to 1", "setting": "Brd2, Brd3 and Brd4", "result": "significant lower activity"}]}, {"compound": "CC[C@@H](C(=O)OCCOCCOCCOCC(=O)N[C@H](C(=O)N1C[C@@H](O)C[C@H]1C(=O)NCc1ccc(-c2scnc2C)cc1)C(C)(C)C)[C@@H]1N=C(c2ccc(Cl)cc2)c2c(sc(C)c2C)-n2c(C)nnc21", "note": "[cis-AGB1, (S)-13-((2S,4S)-4-hydroxy-2-((4-(4-methylthiazol-5-yl)benzyl)carbamoyl)pyrrolidine-1-carbonyl)-14,14-dimethyl-11-oxo-3,6,9-trioxa-12-azapentadecyl (R)-2-((S)-4-(4-chlorophenyl)-2,3,9-trimethyl-6H-thieno[3,2-f][1,2,4]triazolo[4,3-a][1,4]diazepin-6-yl)butanoate]", "values": [{"measurement": "BRD2 protein abundance (proteomics)", "setting": "[2]", "result": "No significant changes"}]}, {"compound": "(S)-13-((2S,4R)-4-hydroxy-2-((4-(4-methylthiazol-5-yl)benzyl)carbamoyl)pyrrolidine-1-carbonyl)-14,14-dimethyl-11-oxo-3,6,9-trioxa-12-azapentadecyl (R)-2-((S)-4-(4-chlorophenyl)-2,3,9-trimethyl-6H-thieno[3,2-f][1,2,4]triazolo[4,3-a][1,4]diazepin-6-yl)butanoate [AGB1 (46)]", "values": [{"measurement": "BRD2 protein abundance (proteomics)", "setting": "[2]", "result": "most significantly degraded"}, {"measurement": "depletion of BRD3, BRD4 or any other endogenous protein (proteomics)", "setting": "[3]", "result": "no detectable depletion"}]}]}
